From article PMC11375437, “Selective labelling of GBA2 in cells with fluorescent β-D-arabinofuranosyl cyclitol aziridines” (Chemical Science, 2024) come the findings set out here.

Structures are written as SMILES.

The target of the assay is T1, GBA1 (Homo sapiens, UniProt P04062).
T1 construct: endogenous in cells; host or cells: wild-type HEK293T
T1 sequence (P04062 40-536): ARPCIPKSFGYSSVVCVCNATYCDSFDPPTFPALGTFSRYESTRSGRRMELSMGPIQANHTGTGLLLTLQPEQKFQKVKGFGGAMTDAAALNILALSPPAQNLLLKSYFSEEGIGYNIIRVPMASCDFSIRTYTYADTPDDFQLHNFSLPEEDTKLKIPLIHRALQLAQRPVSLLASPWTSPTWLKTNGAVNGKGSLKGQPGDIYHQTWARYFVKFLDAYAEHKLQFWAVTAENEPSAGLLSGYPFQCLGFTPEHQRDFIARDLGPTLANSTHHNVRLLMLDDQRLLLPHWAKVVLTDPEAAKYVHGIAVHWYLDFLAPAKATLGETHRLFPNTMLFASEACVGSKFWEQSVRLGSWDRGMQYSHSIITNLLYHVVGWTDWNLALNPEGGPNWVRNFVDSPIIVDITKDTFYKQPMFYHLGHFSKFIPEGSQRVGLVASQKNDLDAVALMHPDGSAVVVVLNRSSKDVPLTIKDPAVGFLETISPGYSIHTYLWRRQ
Description: In situ labelling of wild-type HEK293T cells, GBA1. In kind it is cell-based. Conditions: wild-type HEK293T intact cells; for GBA1 labelling in situ: 500 nM, 2.5 h. As to the method: Importantly, the GBA2 selectivity of β-D-Araf ABPs 3–5 was maintained during in situ labelling of wild-type HEK293T cells (ESI Fig. S9 ^†). […] Even after 24 h incubation, similar results were obtained: ABP 4 selectively labelled GBA2 at 10 nM, with only slight concomitant GBA1 labelling at concentrations higher than 100 nM (ESI Fig. S10 ^†). Selective GBA2 labelling by ABP 3 and 4 finally was also observed in human retinal pigment epithelial-1 cells (Fig. 5C).
Figure S9. Fluorescent gel images of in situ labelling of wild-type HEK293T cells by β-D-Araf aziridine ABPs 3-5.
β-D-Araf ABPs were firstly incubated with intact wild-type HEK293T cells for 1 or 2.5 h (1st incubation) and then cells were harvested. Lysis buffers containing different competitors (1 µM ABP or cyclophellitol inhibitor (CP, 1 µM for 150 nM set, 2 µM for 500 nM set)) was added to the harvested cells, cells were lysed, and lysate was incubated on ice for 30 min and additional 30 min at 37 °C (2nd incubation). Labelling of residual β-glucosidases was performed using ABPs 7 (for 3), 8 (for 4), or 9 (for 5) at 500 nM.
Figure S10. Fluorescent gel images of A) intact HEK293T wild-type cells labeled by β-D-Araf aziridine ABPs 3-5. […]
2.13 In situ intact cells labelling and inhibition assays
Confluent HEK293T cells expressing human endogenous GBA1 and GBA2/GBA3 OE, wild-type HEK293T cells or wild-type human retinal pigment epithelial-1 (RPE-1) cells were cultured in 12-well plates for duplicates or triplicates with (or without) compounds (3-5) for the described incubation times using the conditions as described for the cell culture. The cells were harvested as described in the cell lysis method. After determination of the protein concentration by BCA assay, the lysates were adjusted to 10 μL by addition of potassium phosphate buffer in order to normalize the amount of protein loaded (to 10-25 μg total protein per measurement), and subjected to the ABPP as […]
2.14 In situ visualization of GBA2 for confocal microscopy
HEK293T WT, GBA2 overexpression (GBA1 endogenous and GBA2 OE) and GBA1/GBA2 knockout (KO) GBA2 overexpression (GBA1/2 KO GBA2 OE) cells were cultured in DMEM High Glucose (Capricon Scientific) supplemented with 10% fetal calf serum, 1% (v/v) GlutaMax and 0.1% (w/v) penicillin/streptomycin.2,6 Cells were grown to approximately 75% confluence on Ø15 mm glass coverslips coated with 0.1 mg/ml poly-L-Lysine.
Samples were pretreated for 16 h with 100 nM of a GBA1 inhibitor (218, 0.5% DMSO), 500 nM of a GBA1 and GBA2 inhibitor (229, 0.5% DMSO) or with 0.5% DMSO alone. GBA2 was subsequently incubated by the addition of 50 nM ABP 4 (BODIPY-Red) to cells for 2 h at 37 °C with 5% CO2.
Unbound probe was washed away with PBS and cells were fixed with 4% paraformaldehyde (Alfa Aesar)/PBS for 15 min at RT. […]

Turning to `CC1=CC(C)=[N+]2C1=C(CCCCc1cn(CCCCCCCCN3[C@@H]4[C@H](CO)[C@@H](O)[C@H](O)[C@@H]43)nn1)c1c(C)cc(C)n1[B-]2(F)F` (stereo partly shown) [ABP 3], the “GBA1 labelling in situ” value is reported as “did not visibly label GBA1”. Take `COc1ccc(C2=[N+]3C(=C(CCCCc4cn(CCCCCCCCN5[C@@H]6[C@H](CO)[C@@H](O)[C@H](O)[C@@H]65)nn4)c4ccc(-c5ccc(OC)cc5)n4[B-]3(F)F)C=C2)cc1` (stereo partly shown) [ABP 4]: the “GBA1 labelling in situ” value is recorded as “did not visibly label GBA1”. Moreover, the “Concentrations giving slight concomitant GBA1 labelling in situ” value (24 h incubation) is “higher than 100 nM”. On to `CN1/C(=C/C=C/C=C/C2=[N+](CCCCCC(=O)NCc3cn(CCCCCCCCN4[C@@H]5[C@H](CO)[C@@H](O)[C@H](O)[C@@H]54)nn3)c3ccccc3C2(C)C)C(C)(C)c2ccccc21` (stereo partly shown) [ABP 5], for which the “GBA1 labelling in situ” value is “GBA1 labelling only occurred when using a high concentration (500 nM) and longer incubation time (2.5 h)”.
